Experimental data: patent US8580818B2, “Combination drug containing probucol and a tetrazolylalkoxy-dihydrocarbostyril derivative with superoxide supressant effects” (Otsuka Pharmaceutical Co., Ltd., priority 2005, dated 2013)

Tests used:
[1] = tested on: focal cerebral ischemic injury in rats; experiment: Focal cerebral ischemic injury in rats (transient MCA occlusion, TTC-stained infarct); type: in vivo, Sprague-Dawley rats; settings: 2-h MCA occlusion/22-h reperfusion, oral, two times at 5 min and 4 h, cilostazol 20 mg/kg, probucol 30 mg/kg, vs vehicle, FIG. 4
Experimental: Male Sprague-Dawley rats weighing 280-320 g were anesthetized with pentobarbital sodium (20 mg/kg, i.p.), and placed on a heating pad (Homeothermic Blanket System, Harvard Apparatus, South Natick, Mass.) to maintain a constant rectal temperature (37±0.5° C.). Systemic arterial blood pressure, arterial blood gas and pH were measured before, during ischemia and after 22-h reperfusion. Focal cerebral ischemia was induced by transient occlusion of the left middle cerebral artery (MCA) as previously described (Stroke 1989; 20:84-91). Surgical nylon suture thread (3-0 in size) with the round tip was advanced from the external carotid artery into the lumen of the internal carotid artery until blocking the flow of the MCA. Two hours after MCA occlusion, reperfusion was allowed by withdrawal of the suture thread until the tip cleared the internal carotid artery. […] The TTC-stained brain slices were photographed using CCD video camera and the size of an infarct was calculated with image analysis system (Image-Pro Plus, Media Cybernetics, Maryland) and expressed as the percentage of infarcted tissue in reference to the ipsilateral hemisphere. […] Data were expressed as mean±S.E.M. The comparison of the results of hemispheric infarct areas between groups is analyzed by repeated measures analysis of variance followed by Tukey's multiple comparison tests as a post hoc comparison. […]

[2] = tested on: atherosclerotic lesion in low-density lipoprotein receptor-knockout mice; experiment: Atherosclerosis in low-density lipoprotein receptor-knockout mice fed high cholesterol; type: in vivo; settings: LDLR-KO mice; for area of atherosclerotic lesion (ratio of Sudan IV stained area to whole aorta), mean±SD: high-fat diet 8 weeks, control 10.1±4.7%; for inhibition of atherosclerotic lesion (in words): Cilostazol 0.3%, Probucol 0.1 and 0.5%, alone or combined, FIG. 2 and FIG. 3
Experimental: Low-density lipoprotein receptor-knockout (LDLR-KO) mice (J. Clin. Invest. 1993; 92: 883-893) (male, 9 weeks old, which was prepared by and kept in Otsuka Pharmaceutical Co, Ltd.) were used. The animals were treated by grouping in the following six groups. Prior to start the experiment, the body weight of the animals and total cholesterol were measured, and based on both data, the animals were divided into six groups in random by stratified randomization method (SAS Software, R8.1). The doses of Probucol and Cilostazol were determined based on the reports (Horm. Metab. Res. 2001; 33: 472-479, and J. Pharmacol. Exp. Ther. 2005; 313: 502-509), respectively. In control group, mice were administered with a high-fat diet [i.e. a conventional feed (CRF-1, manufactured by Oriental Yeast Industries Co., LTD.) supplemented with cholesterol (1.25%), sodium cholate (0.5%) and cacao butter (15%)] and in the test material-administered group, the mice were administered with the high-fat diet combined with Cilostazol (0.3%) and/or Probucol (0.1% or 0.5%). The high-fat diet was administered to the LDLR-KO mice (since 9 weeks old) in order to induce atherosclerosis (in control group). In the test material-administration groups, the high-fat diet mixed with test material was administered to the mice (since 9 weeks old). The mice in both groups were dissected at eighth weeks after starting the administration of the diet. The atherosclerotic lesion was evaluated by picking up whole of the aorta under ether anesthesia, exposing the inner face of aorta and staining the fats with Sudan IV. The area of the atherosclerotic lesion (containing fats/lipids) in whole of the aorta was counted by image analysis of stained area and whole area of the aorta. 1) In order to confirm the synergistic effects of the combination of Cilostazol and Probucol, two-way ANOVA was carried out between the control group and the Cilostazol-administered group as well as between the Probucol-administered group and two agents-administered group, and thereby the interaction was observed. 2) The effects in Cilostazol- and Probucol-administered group were compared with the effects in control group by Dunnett's test. Moreover, the effects in Cilostazol- and Probucol-administered group were compared with the effects in Cilostazol+Probucol-administered group by Dunnett's test. All tests were done by two-sided test with significant level of 5%, by means of SAS Software (SAS Institute Japan, R8.1). The area of atherosclerotic lesion was calculated as the ratio (%) of the area stained by Sudan IV to the area of whole aorta. The mean values±standard deviation were 10.1±4.7% in Control group, 6.6±2.6% in Cilostazol-administered group, 6.2±2.6% in 0.1% Probucol-administered group, 4.7±1.2% in 0.5% Probucol-administered group, 3.8±1.2% in Cilostazol+0.1% Probucol-administered group, and 2.9±1.5% in Cilostazol+0.5% Probucol-administered group.

[3] = tested on: Otsuka Long-Evans Tokushima Fatty (OLETF) male rats; experiment: Urinary excretion of glucose and insulin resistance in OLETF rats on high-fat diet; type: in vivo; settings: eleventh week; for urinary glucose, mean±SD: 0.3% Cilostazol and/or 0.5% Probucol in diet, control 186±171 mg/dl; for effect on plasma glucose: 0.3% Cilostazol or 0.5% Probucol in diet, control 162±16 mg/dl
Experimental: Otsuka Long-Evans Tokushima Fatty (OLETF) male rats (6 week olds) were divided randomly into the following four groups depending on the body weights by stratified randomized method (using SAS Software, R8.1): Immediately after the randomized grouping, high-fat diet (commercially available feed (CRF-1, manufactured by Oriental Yeast Industries Co., LTD.) supplemented with cholesterol (1.25%), sodium cholate (0.5%) and cacao butter (15%)) was administered to the mice in each group in order to promote the onset of renal disease. In the test-material administered groups, the high-fat diet combined with the test material was administered to each mouse immediately after grouping. In the eleventh week after initiation of feeding, the mice were bled from the tail vein without anesthetization, and the plasma glucose and insulin level in plasma were measured. Separately, the urine was taken, and the urinary glucose was measured. Glucose was measured by an enzymatic method using a commercially available kit for measuring glucose, and the insulin was measured by a commercially available ELISA kit. 1) In order to confirm the synergistic effects of the combination of Cilostazol and Probucol, two-way ANOVA was carried out between the control group and the Cilostazol-administered group as well as between the Probucol-administered group and two agents-administered group, and thereby the interaction was observed. 2) The effects in Cilostazol- and Probucol-administered group were compared with the effects in control group by Dunnett's test. Moreover, the effects in Cilostazol- and Probucol-administered group were compared with the effects in Cilostazol+Probucol-administered group by Dunnett's test. All tests were done by two-sided test with significant level of 5%, by means of SAS Software (SAS Institute Japan, R8.1). The data were shown by mean±SD (n).

Row | SMILES | hemispheric cerebral infarct area (in words) [1] | area of atherosclerotic lesion (ratio of Sudan IV stained area to whole aorta), mean±SD ([2]; 0.1% Probucol in diet) | area of atherosclerotic lesion (ratio of Sudan IV stained area to whole aorta), mean±SD ([2]; 0.5% Probucol in diet) | inhibition of atherosclerotic lesion (in words) [2] | urinary glucose, mean±SD [3] | effect on plasma glucose [3] | area of atherosclerotic lesion (ratio of Sudan IV stained area to whole aorta), mean±SD ([2]; 0.3% Cilostazol in diet)
1 | CC(C)(Sc1cc(C(C)(C)C)c(O)c(C(C)(C)C)c1)Sc1cc(C(C)(C)C)c(O)c(C(C)(C)C)c1 [Probucol, 4,4′-isopropylidenedithiobis[2,6-di-tert-butylphenol]] | without effect | 6.2±2.6% | 4.7±1.2% | inhibited the atherosclerotic lesion significantly | 11 ± 3 mg/dL | neither Cilostazol nor Probucol showed any effect | –
2 | O=C1CCc2cc(OCCCCc3nnnn3C3CCCCC3)ccc2N1 [Cilostazol, 6-[4-(1-cyclohexyl-1H-tetrazol-5-yl)butoxy]-3,4-dihydrocarbostyril] | marginally reduced | – | – | inhibited the atherosclerotic lesion significantly | 11 ± 2 mg/dL | neither Cilostazol nor Probucol showed any effect | 6.6±2.6%
